Assay results from patent US8048873B2, “Synergistic pharmaceutical combination for the prevention or treatment of diabetes” (N-Gene Research Laboratories, Inc., priority 2001, dated 2011).

System: New Zealand white rabbits
Assay: Hyperinsulinaemic euglycaemic glucose clamp studies (insulin sensitivity by glucose infusion rate at steady state)
Assay type: in vivo, rabbit
Settings: measured on 6th day
Procedure: Adult male New Zealand white rabbits weighing 3-3.2 kg, housed in an animal room (12-hour light/dark periods a day, temperature of 22-25° C., relative humidity of 50-70%) with one animal per pen, fed commercial laboratory chow and tap water ad libitum, were used throughout. The animals underwent surgery after a two-week adaptation period.
Surgery was performed under aseptic conditions. The rabbits were anaesthetized with an intravenous bolus of 10 mg/kg diazepam (Sigma, St. Louis, Mo., USA) and 5 mg/kg ketamine (EGIS Pharmaceuticals Ltd., Budapest, Hungary). […] Polyethylene catheters were inserted into two major branches of the jugular vein and the left carotid artery. The catheters were exteriorised through the back of the neck. These lines were kept patent by filling with sodium heparin solution (100 IU/ml).
Hyperinsulinaemic Euglycaemic Glucose Clamp Studies
Blood samples (0.3 ml) were taken from the arterial cannula for blood glucose concentration at 10 min intervals. […] When blood glucose had stabilized for at least 30 min, we defined this condition as steady state. In the steady state, additional blood samples (0.5 ml) were taken for plasma insulin determination at 10-min intervals. The glucose infusion rate (mg/kg/min) during steady state was used to characterize insulin sensitivity [DeFronzo R. A. et al., Am. […] The test compound(s) was/were administered to healthy and hypercholesterolaemic animals, respectively, perorally, in a single dose, daily, for five days, and the glucose infusion rates determined on the 6th day were averaged within each test group consisting of 6 animals. One group of the healthy and one of the hypercholesterolaemic animals was used as the control.
It is favourable that a higher amount of glucose should be needed at the given constant blood glucose level which indicates the enhanced effect of insulin.

With `Cc1c(C)c2c(c(C)c1O)CCC(C)(COc1ccc(CC3SC(=O)NC3=O)cc1)O2` (racemic) [Troglitazone, (±)-5-[[4-[(3,4-dihydro-6-hydroxy-2,5,7,8-tetramethyl-2H-1-benzopyran-2-yl)methoxy]-phenyl]methyl]-2,4-thiazolidinedione] the “Insulin sensitivity as characterized by the glucose infusion rate during steady state” value (shortened to “Insulin sensitivity as characterized”) (Table 2, HC (hypercholesterolaemic) animals, troglitazone 75 mg/kg daily dose p.o. for five days) was 14.1 ± 1.33 mg/kg/min and the “Insulin sensitivity as characterized” value (Table 2, normal (healthy) animals, troglitazone 75 mg/kg daily dose p.o. for five days) was 14.3 ± 0.08 mg/kg/min.

With `CN(C)C(=N)N=C(N)N` [Metformin, N,N-dimethylimidocarbonimidic diamide] the “Insulin sensitivity as characterized” value (Table 1, HC (hypercholesterolaemic) animals, metformin 100 mg/kg daily dose p.o. for five days) was 11.7 ± 0.87 mg/kg/min and the “Insulin sensitivity as characterized” value (Table 1, normal (healthy) animals, metformin 100 mg/kg daily dose p.o. for five days) was 15.8 ± 0.83 mg/kg/min.
